How the values were obtained:
Human HDAC6 = biological target: T1, Human HDAC6 (Homo sapiens, UniProt Q9UBN7); experiment: HDAC6 inhibition assay (fluorogenic p53 peptide substrate); type: biochemical; details: Table 1; performed by Reaction Biology Corporation; read-out: HDAC isoform IC50 (nM) 6
T1 construct: Full length with N-terminal GST tag, MW=159 kDa; GST (N); host or cells: Sf9 insect cells (baculovirus)
T1 sequence (Q9UBN7 1-1215): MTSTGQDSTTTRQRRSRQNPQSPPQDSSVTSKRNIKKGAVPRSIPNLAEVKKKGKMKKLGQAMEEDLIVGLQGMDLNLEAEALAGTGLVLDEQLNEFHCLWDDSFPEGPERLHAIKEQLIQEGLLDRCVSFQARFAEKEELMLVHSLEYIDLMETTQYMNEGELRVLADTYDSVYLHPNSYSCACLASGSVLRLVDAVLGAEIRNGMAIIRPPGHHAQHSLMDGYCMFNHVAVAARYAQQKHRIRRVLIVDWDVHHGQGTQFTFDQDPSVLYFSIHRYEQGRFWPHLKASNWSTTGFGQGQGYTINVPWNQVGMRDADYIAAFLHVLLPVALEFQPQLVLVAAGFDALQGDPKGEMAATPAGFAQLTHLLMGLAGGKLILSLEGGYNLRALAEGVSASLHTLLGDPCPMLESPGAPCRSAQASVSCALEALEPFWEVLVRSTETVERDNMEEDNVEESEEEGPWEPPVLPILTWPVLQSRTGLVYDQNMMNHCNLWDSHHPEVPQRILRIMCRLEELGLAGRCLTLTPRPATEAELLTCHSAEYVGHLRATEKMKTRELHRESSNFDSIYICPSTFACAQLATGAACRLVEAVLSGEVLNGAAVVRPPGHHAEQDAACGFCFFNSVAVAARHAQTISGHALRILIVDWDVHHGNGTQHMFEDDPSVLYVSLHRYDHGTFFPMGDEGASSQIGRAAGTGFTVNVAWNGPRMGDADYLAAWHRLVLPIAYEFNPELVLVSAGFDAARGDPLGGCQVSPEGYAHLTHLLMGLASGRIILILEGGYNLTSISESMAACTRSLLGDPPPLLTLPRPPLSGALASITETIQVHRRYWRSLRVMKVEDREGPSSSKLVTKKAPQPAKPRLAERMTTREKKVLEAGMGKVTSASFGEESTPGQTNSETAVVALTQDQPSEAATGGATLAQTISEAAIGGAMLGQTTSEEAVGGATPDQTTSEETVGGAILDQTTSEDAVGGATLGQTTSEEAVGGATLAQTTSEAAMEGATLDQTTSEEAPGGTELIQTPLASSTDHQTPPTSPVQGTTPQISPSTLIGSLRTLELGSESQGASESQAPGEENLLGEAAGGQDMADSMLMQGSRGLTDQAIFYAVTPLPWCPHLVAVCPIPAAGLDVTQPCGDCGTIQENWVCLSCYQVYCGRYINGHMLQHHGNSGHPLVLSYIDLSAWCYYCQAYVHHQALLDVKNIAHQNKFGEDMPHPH
Method: (§1) The HDAC1, 2, 4, 5, 6, 7, 8, 9, 10, and 11 assays used isolated recombinant human protein; HDAC3/NcoR2 complex was used for the HDAC3 assay. Substrate for HDAC1, 2, 3, 6, 10, and 11 assays is a fluorogenic peptide from p53 residues 379-382 (RHKKAc); substrate for HDAC8 is fluorogenic diacyl peptide based on residues 379-382 of p53 (RHKAcKAc). Acetyl-Lys(trifluoroacetyl)-AMC substrate was used for HDAC4, 5, 7, and 9 assays. Compounds were dissolved in DMSO and tested in 10-dose IC50 mode with 3-fold serial dilution starting at 30 μM. Control Compound Trichostatin A (TSA) was tested in a 10-dose IC50 with 3-fold serial dilution starting at 5 μM. IC50 values were extracted by curve-fitting the dose/response slopes. Assays were performed in duplicate and IC50 values are an average of data from both experiments.
Human HDAC6 (GenBank Accession No. BC069243): Full length with N-terminal GST tag, MW=159 kDa, expressed by baculovirus expression system in Sf9 cells. Enzyme is in 50 mM Tris-HCl, pH 8.0, 138 mM NaCl, 20 mM glutathione, and 10% glycerol, and stable for >6 months at −80° C. Purity is >90% by SDS-PAGE. Specific Activity is 50 U/μg, where one U=1 pmol/min under assay condition of 25 mM Tris/Cl, pH8.0, 137 mM NaCl, 2.7 mM KCl, 1 mM MgCl2, and 0.1 mg/ml BSA, 30 μM HDAC substrate, and 5 ng/μl HDAC6, incubation for 60 min at 30° C.
(§2) Substrate for HDAC1 and HDAC6: Acetylated peptide substrate for HDAC, based on residues 379-382 of p53 (Arg-His-Lys-Lys(Ac)), a site of regulatory acetylation by the p300 and CBP acetyltransferases (lysines 381, 382)1-6, is the best for HDAC from among a panel of substrates patterned on p53, histone H3 and histone H4 acetylation sites7.
(§3) Reaction Buffer: 50 mM Tris-HCl, pH 8.0, 137 mM NaCl, 2.7 mM KCl, 1 mM MgCl2, 1 mg/ml BSA.
HDAC6: 12.6 nM HDAC6 and 50 μM HDAC substrate are in the reaction buffer and 1% DMSO final. Incubate for 2 hours at 30° C.
(§4) All IC50 values are automatically calculated using the GraphPad Prism version 5 and Equation of Sigmoidal dose-response (variable slope): Y=Bottom+(Top−Bottom)/(1+10^((Log EC50−X)*HillSlope)), where X is the logarithm of concentration, Y is the response, Y starts at Bottom and goes to Top with a sigmoid shape. In most cases, “Bottom” is set 0, and “Top” is set “less than 120%”. This is identical to the “four parameter logistic equation”. IC50 curves also are drawn using the GraphPad Prism, and IC50 values and Hill slopes are provided.
(§5) HDAC Activity Assays: HDAC assay is performed using fluorescently-labeled acetylated substrate, which comprises an acetylated lysine side chain. After incubation with HDAC, deacetylation of the substrate sensitizes the substrate such that, in a second step, treatment with the detection enzyme produces a fluorophore. HDACs 1 and 6 were expressed as full length fusion proteins. Purified proteins were incubated with 50 μM fluorescently-labeled acetylated peptide substrate and test compound for 2 hours at RT in HDAC assay buffer containing 50 mM Tris-HCl (pH 8.0), 137 mM NaCl, 2.7 mM KCl, 1 mM MgCl2, 1% DMSO, and 1% BSA.
(§6) Reactions were terminated by the addition of the Developer after 2 hours, and the development of fluorescence signal, which was relative to the amount of deacetylated peptide, was monitored by time-course measurement of EnVision (PerkinElmer). The HDAC activity was estimated from the slope of time-course measurement of the fluorescence intensity. The slope of no-enzyme control (substrate alone) was served as background, and % Enzyme activity was calculated using background-subtracted slope of no inhibitor control (DMSO) as 100% activity.

Nrf2 = Nrf2 activation, Neh2-luc reporter assay; type: cell-based; details: measured at 10 μM
Method: (§7) The present compounds were evaluated for an ability to activate Nrf2 and HIF-1α. Table 1 summarizes Nrf2 activation data obtained in Neh2-luc reporter assay; and HIF1 activation measured in ODD reporter assay.

HIF-1α = experiment: HIF1 activation, ODD reporter assay; type: cell-based; details: measured at 10 μM
Method: as §7

Human HDAC1 = biological target: T2, Human HDAC1 (Homo sapiens, UniProt Q13547); experiment: HDAC1 inhibition assay (fluorogenic p53 peptide substrate); type: biochemical; details: Table 1; performed by Reaction Biology Corporation; read-out: HDAC isoform IC50 (nM) 1
T2 construct: Full length with C-terminal GST tag, MW=79.9 kDa; GST (C); host or cells: Sf9 insect cells (baculovirus)
T2 sequence (Q13547 whole entry, canonical isoform): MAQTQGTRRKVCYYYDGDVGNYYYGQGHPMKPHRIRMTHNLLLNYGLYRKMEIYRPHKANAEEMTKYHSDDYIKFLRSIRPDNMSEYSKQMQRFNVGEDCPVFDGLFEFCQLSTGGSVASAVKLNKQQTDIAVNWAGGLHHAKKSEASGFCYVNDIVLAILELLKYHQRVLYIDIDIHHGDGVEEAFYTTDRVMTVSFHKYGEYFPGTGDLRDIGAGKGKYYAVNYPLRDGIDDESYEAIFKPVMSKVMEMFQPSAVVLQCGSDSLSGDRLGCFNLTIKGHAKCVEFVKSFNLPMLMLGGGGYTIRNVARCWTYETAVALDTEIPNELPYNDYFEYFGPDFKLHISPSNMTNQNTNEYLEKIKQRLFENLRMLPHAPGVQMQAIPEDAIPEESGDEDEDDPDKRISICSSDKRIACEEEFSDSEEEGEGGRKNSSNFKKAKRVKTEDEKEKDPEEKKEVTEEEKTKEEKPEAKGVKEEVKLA
Method: as §1
Human HDAC1 (GenBank Accession No. NM_004964): Full length with C-terminal GST tag, MW=79.9 kDa, expressed by baculovirus expression system in Sf9 cells. Enzyme is in 50 mM Tris-HCl, pH 8.0, 138 mM NaCl, 20 mM glutathione, and 10% glycerol, and stable for >6 months at −80° C. Purity is >10% by SDS-PAGE. Specific Activity is 20 U/μg, where one U=1 pmol/min under assay condition of 25 mM Tris/Cl, pH8.0, 137 mM NaCl, 2.7 mM KCl, 1 mM MgCl2, 0.1 mg/ml BSA, 100 μM HDAC substrate, and 13.2 ng/μl HDAC1, incubation for 30 min at 30° C.
as §2, §3
HDAC1: 75 nM HDAC1 and 50 μM HDAC substrate are in the reaction buffer and 1% DMSO final. Incubate for 2 hours at 30° C.
as §4, §5, §6

Compound	IC50 (Human HDAC6)	IC50 (Human HDAC1)	fold induction at 10 µM (Nrf2)	fold induction at 10 µM (HIF-1α)	Nrf2 fold activation (Nrf2)	HIF-1α fold activation (HIF-1α)
O=C(NO)c1ccc(CN2CCc3cc(Cl)ccc32)cc1F [II-ING-51, 4-((5-Chloroindolin-1-yl)methyl)-2-fluoro-N-hydroxybenzamide]	40.2 nM	–	1.6	7.2	–	–
O=C(NO)c1ccc(CN2CCc3cc([N+](=O)[O-])ccc32)cc1 [II-ING-57, N-Hydroxy-4-((5-nitroindolin-1-yl)methyl)benzamide]	1.4 nM	1970 nM	6.6	3.9	–	–
O=C(NO)c1ccc(CN2CCc3ccc(OCc4ccccc4)cc32)cc1 [II-ING-61, 4-((6-(Benzyloxy)indolin-1-yl)methyl)-N-hydroxybenzamide]	25.2 nM	1850 nM	2.2	7	–	–
CC1(C)CN(Cc2ccc(C(=O)NO)cc2)c2ccccc21 [II-ING-65, 4-((3,3-Dimethylindolin-1-yl)methyl)-N-hydroxybenzamide]	24.5 nM	18700 nM	1.8	2.8	–	–
Cn1c(NCc2ccc(C(=O)NO)cc2)nc2cc(Cl)ccc21 [II-ING-85, 4-(((5-chloro-1-methyl-1H-benzo[d]imidazol-2-yl)amino)methyl)-N-hydroxybenzamide]	2.7 nM	1500 nM	1.3	1.1	–	–
O=C(NO)c1ccc(CNc2nc3ccccc3n2-c2ccccc2)cc1 [II-ING-87, N-hydroxy-4-(((1-phenyl-1H-benzo[d]imidazol-2-yl)amino)methyl)benzamide]	13 nM	3230 nM	1.2	1	–	–
C[N+]1(C)CCC2(CC1)C(=O)N(Cc1ccc(C(=O)NO)cc1)c1ccccc12 [II-ING-109, 1-(4-(Hydroxycarbamoyl)benzyl)-1′,1′-dimethyl-2-oxospiro[indoline-3,4′-piperidin]-1′-ium]	18 nM	19700 nM	–	–	1.5 fold	1.0 fold
C[N+]1(C)CCC2(CC1)C(=O)N(Cc1ccc(C(=O)NO)cc1)c1ccccc12 [II-ING-118]	5.8 nM	7880 nM	2	1.3	–	–

The remaining compounds from weak to strong by IC50 (Human HDAC6), led by results:

IC50 (Human HDAC6)	IC50 (Human HDAC1)	Compound	fold induction at 10 µM (Nrf2)	fold induction at 10 µM (HIF-1α)	Nrf2 fold activation (Nrf2)	HIF-1α fold activation (HIF-1α)
5560 nM	≥ 30000 nM	O=C(NO)c1cccc(CN2C(=O)C(F)(F)c3ccccc32)c1 [II-ING-100, 3-((3,3-Difluoro-2-oxoindolin-1-yl)methyl)-N-hydroxybenzamide]	1.5	1	–	–
8.2 nM	4700 nM	O=C(NO)c1ccc(CN2CC3(CC3)c3cc(F)ccc32)cc1 [II-ING-68, 4-((5′-Fluorospiro[cyclopropane-1,3′-indolin]-1′-yl)methyl)-N-hydroxybenzamide]	6.2	5.8	–	–
5.1 nM	7880 nM	CC1(C)C(=O)N(Cc2ccc(C(=O)NO)cc2)c2ccccc21 [II-ING-101, 4-((3,3-Dimethyl-2-oxoindolin-1-yl)methyl)-N-hydroxybenzamide]	3.4	1	–	–
4.6 nM	7820 nM	O=C(NO)c1ccc(CN2CCc3cc(F)c(Cl)cc32)cc1 [II-ING-56, 4-((6-Chloro-5-fluoroindolin-1-yl)methyl)-N-hydroxybenzamide]	5.5	7.8	–	–
